Measured values: ChEMBL document CHEMBL1201862, “PubChem BioAssay data set” (2004)
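Step 1: Grow cells in 96-well plates. Step 2: Expose to compound for 48 hours at 5 concentrations. Step 3: Interpolate endpoints linearly; if unreached, use highest concentration. Here, GI50 denotes the concentration required for 50% inhibition of growth.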 Calls of active or inactive are those of the source. No stated cut-off is given here; in the data, active = GI50 up to about 1.1 µM and inactive = higher.

Tests used:
Test in all cases: growth of human tumour cells (NCI), 48 h
SF-539 = tested on: SF-539
RXF 393 = tested on: RXF 393
HCT-116 = tested on: HCT-116
OVCAR-4 = tested on: OVCAR-4
SF-295 = tested on: SF-295
NCI-H23 = tested on: NCI-H23
K562 = tested on: K562
UACC-62 = tested on: UACC-62
SNB-75 = tested on: SNB-75
786-0 = tested on: 786-0
TK-10 = tested on: TK-10
ACHN = tested on: ACHN
UACC-257 = tested on: UACC-257
SNB-19 = tested on: SNB-19
SW-620 = tested on: SW-620
HCT-15 = tested on: HCT-15
COLO 205 = tested on: COLO 205
UO-31 = tested on: UO-31
CAKI-1 = tested on: CAKI-1
LXFL 529 = tested on: LXFL 529
SF-268 = tested on: SF-268
OVCAR-5 = tested on: OVCAR-5
EKVX = tested on: EKVX
NCI-H522 = tested on: NCI-H522
M14 = tested on: M14
SN12C = tested on: SN12C
KM12 = tested on: KM12
IGROV-1 = tested on: IGROV-1
HOP-18 = tested on: HOP-18
RPMI-8226 = tested on: RPMI-8226
DLD-1 = tested on: DLD-1
DMS-114 = tested on: DMS-114
U-251 = tested on: U-251
KM-20L2 = tested on: KM-20L2
XF498 = tested on: XF498
LOX IMVI = tested on: LOX IMVI
SK-MEL-5 = tested on: SK-MEL-5
OVCAR-8 = tested on: OVCAR-8
SK-MEL-2 = tested on: SK-MEL-2
OVCAR-3 = tested on: OVCAR-3
NCI-H460 = tested on: NCI-H460
SNB-78 = tested on: SNB-78
MOLT-4 = tested on: MOLT-4
HCC 2998 = tested on: HCC 2998
DMS-273 = tested on: DMS-273
HOP-62 = tested on: HOP-62
HT-29 = tested on: HT-29
CCRF-CEM = tested on: CCRF-CEM
M19-MEL = tested on: M19-MEL
A549 = tested on: A549
HOP-92 = tested on: HOP-92
SK-MEL-28 = tested on: SK-MEL-28
A498 = tested on: A498
Malme-3M = tested on: Malme-3M
SK-OV-3 = tested on: SK-OV-3
HL-60 = tested on: HL-60
NCI-H226 = tested on: NCI-H226
RXF 631 = tested on: RXF 631

Cc1cc(C)nc(NS(=O)(=O)c2ccc(NC(=O)c3cccc4c(Nc5ccc(S(=O)(=O)Nc6nc(C)cc(C)n6)cc5)c5ccc(Cl)cc5nc34)cc2)n1 was tested, and the GI50 (SF-539) was 37.8 µM (inactive), the GI50 (RXF 393) was 78.3 µM (inactive) and the GI50 (HCT-116) was 28.1 µM (inactive). For the same compound, the GI50 (OVCAR-4) was 35.6 µM (inactive), the GI50 (SF-295) was 38 µM (inactive) and the GI50 (NCI-H23) was 39.4 µM (inactive). The GI50 (K562) was 26.1 µM (inactive), the GI50 (UACC-62) was 23.1 µM (inactive) and the GI50 (SNB-75) was 17.1 µM (inactive). For the same compound, the GI50 (786-0) was 28.4 µM (inactive), the GI50 (TK-10) was 30.8 µM (inactive) and the GI50 (ACHN) was 27.3 µM (inactive). For the same compound, the GI50 (UACC-257) was 20.8 µM (inactive), the GI50 (SNB-19) was 28.1 µM (inactive) and the GI50 (SW-620) was 54.1 µM (inactive). For the same compound, the GI50 (HCT-15) was 75.5 µM, the GI50 (COLO 205) was 33.8 µM (inactive) and the GI50 (UO-31) was 13.4 µM (inactive). For the same compound, the GI50 (CAKI-1) was 19.5 µM (inactive), the GI50 (LXFL 529) was 33 µM (inactive) and the GI50 (SF-268) was 28.6 µM (inactive). The GI50 (OVCAR-5) was > 100 µM (inactive), the GI50 (EKVX) was 29.5 µM (inactive) and the GI50 (NCI-H522) was 15.6 µM (inactive). For the same compound, the GI50 (M14) was 37.4 µM (inactive), the GI50 (SN12C) was 35.5 µM (inactive) and the GI50 (KM12) was 33.1 µM (inactive). For the same compound, the GI50 (IGROV-1) was 46.2 µM (inactive), the GI50 (HOP-18) was > 100 µM (inactive) and the GI50 (RPMI-8226) was 28.2 µM (inactive). The GI50 (DLD-1) was 33.7 µM (inactive), the GI50 (DMS-114) was 25.1 µM (inactive) and the GI50 (U-251) was 27.5 µM (inactive). The GI50 (KM-20L2) was 40.5 µM (inactive), the GI50 (XF498) was 23.1 µM (inactive) and the GI50 (LOX IMVI) was 29.2 µM (inactive). For the same compound, the GI50 (SK-MEL-5) was 20.1 µM (inactive), the GI50 (OVCAR-8) was 34.7 µM (inactive) and the GI50 (SK-MEL-2) was 34 µM (inactive). The GI50 (OVCAR-3) was 17.5 µM (inactive), the GI50 (NCI-H460) was 37 µM (inactive) and the GI50 (SNB-78) was 39.4 µM (inactive). For the same compound, the GI50 (MOLT-4) was 33.3 µM (inactive), the GI50 (HCC 2998) was 36.6 µM (inactive) and the GI50 (DMS-273) was 77.6 µM (inactive). The GI50 (HOP-62) was 24.4 µM (inactive), the GI50 (HT-29) was 40.6 µM (inactive) and the GI50 (CCRF-CEM) was 27.5 µM (inactive). The GI50 (M19-MEL) was 37.8 µM (inactive), the GI50 (A549) was 41.1 µM (inactive) and the GI50 (HOP-92) was 28 µM (inactive). The GI50 (SK-MEL-28) was 29.6 µM (inactive), the GI50 (A498) was 45 µM (inactive) and the GI50 (Malme-3M) was 16.4 µM (inactive). The GI50 (SK-OV-3) was 26.7 µM (inactive).
Sc1nnc(C(c2ccccc2)c2ccccc2)[nH]1 was tested, and the GI50 (SF-539) was > 100 µM (inactive), the GI50 (RXF 393) was > 100 µM (inactive) and the GI50 (HCT-116) was > 100 µM (inactive). The GI50 (SF-295) was > 100 µM (inactive), the GI50 (NCI-H23) was > 100 µM (inactive) and the GI50 (K562) was > 100 µM (inactive). The GI50 (UACC-62) was > 100 µM (inactive), the GI50 (786-0) was > 100 µM (inactive) and the GI50 (TK-10) was > 100 µM (inactive). The GI50 (ACHN) was > 100 µM (inactive), the GI50 (UACC-257) was > 100 µM (inactive) and the GI50 (SNB-19) was > 100 µM (inactive). For the same compound, the GI50 (SW-620) was > 100 µM (inactive), the GI50 (HCT-15) was over 100 µM and the GI50 (COLO 205) was > 100 µM (inactive). For the same compound, the GI50 (UO-31) was > 100 µM (inactive), the GI50 (HL-60) was > 100 µM (inactive) and the GI50 (SF-268) was > 100 µM (inactive). For the same compound, the GI50 (OVCAR-5) was > 100 µM (inactive), the GI50 (EKVX) was > 100 µM (inactive) and the GI50 (NCI-H522) was 53.2 µM (inactive). The GI50 (SN12C) was > 100 µM (inactive), the GI50 (KM12) was > 100 µM (inactive) and the GI50 (IGROV-1) was > 100 µM (inactive). For the same compound, the GI50 (DLD-1) was > 100 µM (inactive), the GI50 (DMS-114) was > 100 µM (inactive) and the GI50 (U-251) was > 100 µM (inactive). For the same compound, the GI50 (KM-20L2) was > 100 µM (inactive), the GI50 (XF498) was > 100 µM (inactive) and the GI50 (LOX IMVI) was > 100 µM (inactive). The GI50 (SK-MEL-5) was > 100 µM (inactive), the GI50 (OVCAR-8) was > 100 µM (inactive) and the GI50 (SK-MEL-2) was > 100 µM (inactive). For the same compound, the GI50 (OVCAR-3) was > 100 µM (inactive), the GI50 (NCI-H460) was > 100 µM (inactive) and the GI50 (MOLT-4) was > 100 µM (inactive). For the same compound, the GI50 (HCC 2998) was > 100 µM (inactive), the GI50 (DMS-273) was > 100 µM (inactive) and the GI50 (HOP-62) was > 100 µM (inactive). The GI50 (HT-29) was > 100 µM (inactive), the GI50 (NCI-H226) was > 100 µM (inactive) and the GI50 (CCRF-CEM) was > 100 µM (inactive). The GI50 (M19-MEL) was > 100 µM (inactive), the GI50 (A549) was > 100 µM (inactive) and the GI50 (RXF 631) was > 100 µM (inactive). The GI50 (SK-MEL-28) was > 100 µM (inactive), the GI50 (A498) was > 100 µM (inactive) and the GI50 (Malme-3M) was > 100 µM (inactive). For the same compound, the GI50 (SK-OV-3) was > 100 µM (inactive).
